From ChEMBL document CHEMBL1137297, “Synthesis and pharmacological evaluation of novel octahydro-1H-pyrido[1,2-a]pyrazine as mu-opioid receptor antagonists” (J Med Chem, 2006)

How the values were obtained:
Mu-type opioid receptor [1] = molecular target: T1, Mu-type opioid receptor (Homo sapiens, UniProt P35372); experiment: Antagonist activity assessed as inhibition of loperamide-stimulated [35S]GTPgammaS binding to human mu opioid receptor expressed in CHO cells; type: functional, cell-based
[2] = molecular target: T2, Kappa-type opioid receptor (Homo sapiens, UniProt P41145); experiment: Antagonist activity assessed as inhibition of U50488-stimulated [35S]GTP-gamma-S binding to human kappa opioid receptor expressed in CHO cells; type: functional, cell-based
[3] = molecular target: T3, Delta-type opioid receptor (Homo sapiens, UniProt P41143); experiment: Antagonist activity assessed as inhibition of BW373U86-stimulated [35S]GTP-gamma-S binding to human delta opioid receptor expressed in CHO cells; type: functional, cell-based
Mu-type opioid receptor [4] = molecular target: T1, Mu-type opioid receptor; experiment: Displacement of [3H]diprenorphine from human cloned mu opioid receptor expressed in CHO cells; type: cell-based
[5] = molecular target: T2, Kappa-type opioid receptor; experiment: Displacement of [3H]diprenorphine from human cloned kappa opioid receptor expressed in CHO cells; type: cell-based
[6] = molecular target: T3, Delta-type opioid receptor; experiment: Displacement of [3H]diprenorphine from human cloned delta opioid receptor expressed in CHO cells; type: cell-based
[7] = molecular target: T3, Delta-type opioid receptor; experiment: Inhibition of [3H]diprenorphine binding to human cloned delta opioid receptor expressed in CHO cells at 10 uM; type: cell-based

T1 sequence (P35372 whole entry): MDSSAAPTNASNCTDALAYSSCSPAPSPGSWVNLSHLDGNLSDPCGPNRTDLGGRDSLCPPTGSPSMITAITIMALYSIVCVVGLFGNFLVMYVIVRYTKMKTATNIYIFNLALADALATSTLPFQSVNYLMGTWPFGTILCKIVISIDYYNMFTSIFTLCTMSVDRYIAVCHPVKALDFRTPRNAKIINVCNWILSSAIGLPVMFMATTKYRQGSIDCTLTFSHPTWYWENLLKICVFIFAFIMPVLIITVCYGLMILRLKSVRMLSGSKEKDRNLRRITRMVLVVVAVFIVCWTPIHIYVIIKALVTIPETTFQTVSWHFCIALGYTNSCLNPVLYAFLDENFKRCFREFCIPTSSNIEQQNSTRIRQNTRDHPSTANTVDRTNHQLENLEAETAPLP
T3 sequence (P41143 whole entry): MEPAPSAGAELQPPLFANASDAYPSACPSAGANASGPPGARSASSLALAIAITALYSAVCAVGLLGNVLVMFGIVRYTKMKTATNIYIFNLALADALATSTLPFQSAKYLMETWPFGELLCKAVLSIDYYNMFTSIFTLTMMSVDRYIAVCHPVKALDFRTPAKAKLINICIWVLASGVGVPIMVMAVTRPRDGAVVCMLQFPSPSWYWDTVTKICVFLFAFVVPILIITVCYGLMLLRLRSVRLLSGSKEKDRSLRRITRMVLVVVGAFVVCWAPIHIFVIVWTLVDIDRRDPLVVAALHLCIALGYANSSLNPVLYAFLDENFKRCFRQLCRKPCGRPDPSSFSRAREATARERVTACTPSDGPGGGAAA
T2 sequence (P41145 whole entry): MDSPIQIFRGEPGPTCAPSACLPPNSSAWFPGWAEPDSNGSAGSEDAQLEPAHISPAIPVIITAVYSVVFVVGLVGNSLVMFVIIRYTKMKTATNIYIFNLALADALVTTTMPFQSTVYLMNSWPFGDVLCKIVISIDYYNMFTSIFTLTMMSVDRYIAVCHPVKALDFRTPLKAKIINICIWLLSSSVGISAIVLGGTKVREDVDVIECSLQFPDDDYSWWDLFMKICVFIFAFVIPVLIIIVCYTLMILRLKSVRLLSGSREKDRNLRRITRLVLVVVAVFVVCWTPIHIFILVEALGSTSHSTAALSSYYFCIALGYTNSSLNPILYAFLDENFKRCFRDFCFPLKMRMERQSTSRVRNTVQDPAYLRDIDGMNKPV

SMILES	IC50 (Mu-type opioid receptor [1]) [nM]	IC50 [2] [nM]	IC50 [3] [nM]	Ki (Mu-type opioid receptor [4]) [nM]	Ki [5] [nM]	Ki [6] [nM]	inhibition [7] [%]
C[C@H]1CN2CCN(CC3CCCCC3)C[C@H]2C[C@@]1(C)c1cccc(O)c1	1.1	36	85	1.1	84	65	–
C[C@H]1CN2C[C@H](C3CCCCC3)NC[C@H]2C[C@@]1(C)c1cccc(O)c1	1.3	1.2	28	2.7	16	68	–
Cc1ccccc1CN1CCN2C[C@H](C)[C@](C)(c3cccc(O)c3)C[C@@H]2C1	1.8	15	62	0.98	30	89	–
C[C@H]1CN2CCN(c3ccccc3)C[C@H]2C[C@@]1(C)c1cccc(O)c1	54	–	–	220	3700	960	–
C[C@H]1CN2C[C@H](c3ccccc3)N(Cc3ccccc3)C[C@H]2C[C@@]1(C)c1cccc(O)c1	40	99	1300	4.7	120	340	–
C[C@H]1CN2C[C@H](c3ccccc3)CC[C@H]2C[C@@]1(C)c1cccc(O)c1	–	3.2	51	–	–	–	–
CC(=O)N1C[C@H]2C[C@@](C)(c3cccc(O)c3)[C@@H](C)CN2C[C@@H]1c1ccccc1	220	–	–	94	620	–	57
C[C@H]1CN2CCCN(Cc3ccccc3)C[C@H]2C[C@@]1(C)c1cccc(O)c1	15	–	–	160	540	2900	–
C[C@H]1CN2CCN(Cc3cccc(OCc4ccccc4)c3)C[C@H]2C[C@@]1(C)c1cccc(O)c1	22	–	–	13	33	–	43
C[C@H]1CN2CCN(Cc3ccccc3Cl)C[C@H]2C[C@@]1(C)c1cccc(O)c1	1.8	10	190	0.47	16	57	–
C[C@H]1CN2C[C@H](c3ccccc3)NC[C@H]2C[C@@]1(C)c1cccc(O)c1	1.1	3.2	98	–	–	–	–
C[C@H]1CN2CCN(Cc3ccoc3)C[C@H]2C[C@@]1(C)c1cccc(O)c1	6.1	–	–	12	120	740	–
C[C@H]1CN2C[C@H](Cc3ccccc3)NC[C@H]2C[C@@]1(C)c1cccc(O)c1	2.8	16	33	–	86	–	–
C[C@H]1CN2CCN(C(=O)c3ccccc3)C[C@H]2C[C@@]1(C)c1cccc(O)c1	2.1	50	14	–	180	–	–
C[C@H]1CN2C[C@@H](Cc3ccccc3)NC[C@H]2C[C@@]1(C)c1cccc(O)c1	22	–	–	25	130	410	–
Cc1ccc(CN2CCN3C[C@H](C)[C@](C)(c4cccc(O)c4)C[C@@H]3C2)cc1	9.5	–	–	14	300	350	–
C[C@H]1CN2C[C@@H](c3ccccc3)NC[C@H]2C[C@@]1(C)c1cccc(O)c1	52	–	–	180	430	660	–
C[C@H]1CN2CCN(Cc3ccco3)C[C@H]2C[C@@]1(C)c1cccc(O)c1	7.2	–	–	7.4	430	1500	–
C[C@H]1CN2C[C@H](c3ccccc3)NC[C@H]2C[C@@]1(C)c1cccc(C(N)=O)c1	1.5	2.3	110	1.8	11	60	–
CC(C)[C@H]1CN2C[C@H](C)[C@](C)(c3cccc(O)c3)C[C@@H]2CN1	66	–	–	380	57	–	15

SMILES	IC50 (Mu-type opioid receptor [1]) [nM]	IC50 [2] [nM]	IC50 [3] [nM]	Ki (Mu-type opioid receptor [4]) [nM]	Ki [5] [nM]	Ki [6] [nM]	inhibition [7] [%]
C[C@H]1CN2CCN(Cc3cccc4ccccc34)C[C@H]2C[C@@]1(C)c1cccc(O)c1	16	–	–	3.5	230	–	60
C[C@H]1CN2CCN(Cc3cccc(Oc4ccccc4)c3)C[C@H]2C[C@@]1(C)c1cccc(O)c1	9.7	–	–	21	24	–	55
C[C@H]1CN2CCN(C(=O)Nc3ccccc3)C[C@H]2C[C@@]1(C)c1cccc(O)c1	16	–	–	31	420	540	–
C[C@H]1CN2CCN(Cc3ccccc3)C[C@H]2C[C@@]1(C)c1cccc(O)c1	0.73	8.4	150	1.2	43	–	–
C[C@H]1CN2CCN(C(=O)Cc3ccccc3)C[C@H]2C[C@@]1(C)c1cccc(O)c1	6.7	–	–	17	540	71	–
C[C@H]1CN2CCN(Cc3cccc(Cl)c3)C[C@H]2C[C@@]1(C)c1cccc(O)c1	1.8	–	–	1.5	83	360	–
C[C@H]1CN2C[C@H](c3ccccc3)N(Cc3ccccc3)C[C@H]2C[C@@]1(C)c1cccc(C(N)=O)c1	28	–	–	17	460	1100	–
C[C@H]1CN2CCN(Cc3cccc(O)c3)C[C@H]2C[C@@]1(C)c1cccc(O)c1	4.5	–	–	4.3	56	310	–
C[C@H]1CN2C[C@H](c3ccccc3)N(C)C[C@H]2C[C@@]1(C)c1cccc(O)c1	–	2.4	580	–	13	2300	–
C[C@H]1CN2CCN(Cc3cccnc3)C[C@H]2C[C@@]1(C)c1cccc(O)c1	7.5	–	–	13	400	840	–
C[C@H]1CN2CCN(CCCc3ccccc3)C[C@H]2C[C@@]1(C)c1cccc(O)c1	13	–	–	36	950	960	–
Cc1cccc(CN2CCN3C[C@H](C)[C@](C)(c4cccc(O)c4)C[C@@H]3C2)c1	1.5	–	–	1.3	130	510	–
C[C@H]1CN2CCN(Cc3ccccn3)C[C@H]2C[C@@]1(C)c1cccc(O)c1	13	–	–	20	390	1100	–
C[C@H]1CN2CCN(Cc3ccc4ccccc4c3)C[C@H]2C[C@@]1(C)c1cccc(O)c1	74	–	–	90	980	–	49
C[C@H]1CN2CCN(Cc3ccc(Cl)cc3)C[C@H]2C[C@@]1(C)c1cccc(O)c1	42	–	–	17	280	420	–
C[C@H]1CN2CCN(Cc3ccsc3)C[C@H]2C[C@@]1(C)c1cccc(O)c1	1.4	–	–	3	38	340	–
C[C@H]1CN2CCN(Cc3ccc(O)cc3)C[C@H]2C[C@@]1(C)c1cccc(O)c1	5.7	–	–	10	270	220	–
COC(=O)c1cccc(CN2CCN3C[C@H](C)[C@](C)(c4cccc(O)c4)C[C@@H]3C2)c1	6.9	–	–	11	140	–	43
C[C@H]1CN2CCN(CCc3ccccc3)C[C@H]2C[C@@]1(C)c1cccc(O)c1	2	20	310	–	–	–	–
